PubChem BioAssay (NCI)
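The compound was tested at five concentrations on cells cultured in 96-well plates, with a 48-hour exposure period. GI50: concentration for 50% inhibition of growth. TGI: concentration producing complete growth inhibition.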

What was measured:
Assay in all cases: growth of human tumour cells (NCI), 48 h
786-0 renal = tested on: 786-0 renal
A498 renal = tested on: A498 renal
A549 NSCLC = tested on: A549 NSCLC
ACHN renal = tested on: ACHN renal
BT-549 breast = tested on: BT-549 breast
CAKI-1 renal = tested on: CAKI-1 renal
CCRF-CEM leukemia = tested on: CCRF-CEM leukemia
COLO 205 colon = tested on: COLO 205 colon
DU-145 prostate = tested on: DU-145 prostate
EKVX NSCLC = tested on: EKVX NSCLC
HCC-2998 colon = tested on: HCC-2998 colon
HCT-116 colon = tested on: HCT-116 colon
HCT-15 colon = tested on: HCT-15 colon
HL-60(TB) leukemia = tested on: HL-60(TB) leukemia
HOP-62 NSCLC = tested on: HOP-62 NSCLC
HOP-92 NSCLC = tested on: HOP-92 NSCLC
HS 578T breast = tested on: HS 578T breast
HT29 colon = tested on: HT29 colon
IGROV1 ovarian = tested on: IGROV1 ovarian
K-562 leukemia = tested on: K-562 leukemia
KM12 colon = tested on: KM12 colon
LOX IMVI melanoma = tested on: LOX IMVI melanoma
M14 melanoma = tested on: M14 melanoma
MALME-3M melanoma = tested on: MALME-3M melanoma
MCF7 breast = tested on: MCF7 breast
MDA-MB-231 breast = tested on: MDA-MB-231 breast
MDA-MB-435 = tested on: MDA-MB-435
MOLT-4 leukemia = tested on: MOLT-4 leukemia
NCI-H226 lung = tested on: NCI-H226 lung
NCI-H23 lung = tested on: NCI-H23 lung
NCI-H460 lung = tested on: NCI-H460 lung
NCI-H522 lung = tested on: NCI-H522 lung
NCI/ADR-RES ovarian = tested on: NCI/ADR-RES ovarian
OVCAR-3 ovarian = tested on: OVCAR-3 ovarian
OVCAR-4 ovarian = tested on: OVCAR-4 ovarian
OVCAR-5 ovarian = tested on: OVCAR-5 ovarian
OVCAR-8 ovarian = tested on: OVCAR-8 ovarian
PC-3 prostate = tested on: PC-3 prostate
RPMI-8226 leukemia = tested on: RPMI-8226 leukemia
RXF 393 renal = tested on: RXF 393 renal
SF-268 CNS = tested on: SF-268 CNS
SF-295 CNS = tested on: SF-295 CNS
SF-539 CNS = tested on: SF-539 CNS
SK-MEL-2 melanoma = tested on: SK-MEL-2 melanoma
SK-MEL-28 melanoma = tested on: SK-MEL-28 melanoma
SK-MEL-5 melanoma = tested on: SK-MEL-5 melanoma
SK-OV-3 ovarian = tested on: SK-OV-3 ovarian
SN12C renal = tested on: SN12C renal
SNB-19 CNS = tested on: SNB-19 CNS
SNB-75 CNS = tested on: SNB-75 CNS
SR leukemia = tested on: SR leukemia
SW-620 colon = tested on: SW-620 colon
T-47D breast = tested on: T-47D breast
TK-10 renal = tested on: TK-10 renal
U251 CNS = tested on: U251 CNS
UACC-257 melanoma = tested on: UACC-257 melanoma
UACC-62 melanoma = tested on: UACC-62 melanoma
UO-31 renal = tested on: UO-31 renal

## O=C1CCC2(C=C(Br)C(=O)C(Br)=C2)O1
786-0 renal
  GI50: 17 µM
  TGI: 30.8 µM
A498 renal
  GI50: 16.6 µM
  TGI: 30.3 µM
A549 NSCLC
  GI50: 24.5 µM
  TGI: 67.3 µM
ACHN renal
  GI50: 1.78 µM
  TGI: 3.19 µM
BT-549 breast
  GI50: 13.6 µM
  TGI: 26.7 µM
CAKI-1 renal
  GI50: 0.611 µM
  TGI: 1.91 µM
CCRF-CEM leukemia
  GI50: 1.97 µM
  TGI: 6.25 µM
COLO 205 colon
  GI50: 1.52 µM
  TGI: 2.98 µM
DU-145 prostate
  GI50: 5.44 µM
  TGI: 15.5 µM
EKVX NSCLC
  GI50: 5.29 µM
  TGI: 12.6 µM
HCC-2998 colon
  GI50: 18.7 µM
  TGI: 33.5 µM
HCT-116 colon
  GI50: 1.69 µM
  TGI: 3.12 µM
HCT-15 colon
  GI50: 2.77 µM
  TGI: 8.76 µM
HL-60(TB) leukemia
  GI50: 1.4 µM
  TGI: 6.18 µM
HOP-62 NSCLC
  GI50: 20.8 µM
  TGI: 39.8 µM
HOP-92 NSCLC
  GI50: 3.07 µM
  TGI: 8.89 µM
HS 578T breast
  GI50: 20.4 µM
  TGI: 57.3 µM
HT29 colon
  GI50: 2.89 µM
  TGI: 7.82 µM
IGROV1 ovarian
  GI50: 6.59 µM
  TGI: 15.6 µM
K-562 leukemia
  GI50: 2.81 µM
  TGI: 21.7 µM
KM12 colon
  GI50: 17.4 µM
  TGI: 31.3 µM
LOX IMVI melanoma
  GI50: 2.53 µM
  TGI: 7.53 µM
M14 melanoma
  GI50: 11.8 µM
  TGI: 24.7 µM
MALME-3M melanoma
  GI50: 2.07 µM
  TGI: 4.67 µM
MCF7 breast
  GI50: 3.57 µM
  TGI: 15.7 µM
MDA-MB-231 breast
  GI50: 15.4 µM
  TGI: 33.6 µM
MDA-MB-435
  GI50: 4.84 µM
  TGI: 11.3 µM
MOLT-4 leukemia
  GI50: 3.46 µM
  TGI: > 23 µM
NCI-H226 lung
  GI50: 17.6 µM
  TGI: 36.2 µM
NCI-H23 lung
  GI50: 12 µM
  TGI: 30 µM
NCI-H460 lung
  GI50: 19.6 µM
  TGI: 38.6 µM
NCI-H522 lung
  GI50: 0.31 µM
  TGI: 1.05 µM
NCI/ADR-RES ovarian
  GI50: 16.2 µM
  TGI: 37.3 µM
OVCAR-3 ovarian
  GI50: 1.65 µM
  TGI: 3.02 µM
OVCAR-4 ovarian
  GI50: 2.08 µM
  TGI: 4.34 µM
OVCAR-5 ovarian
  GI50: 15 µM
  TGI: 29.7 µM
OVCAR-8 ovarian
  GI50: 3.45 µM
  TGI: 11.5 µM
PC-3 prostate
  GI50: 15.8 µM
  TGI: 31.3 µM
RPMI-8226 leukemia
  GI50: 10.7 µM
  TGI: 46 µM
RXF 393 renal
  GI50: 2.82 µM
  TGI: 6.96 µM
SF-268 CNS
  GI50: 15.1 µM
  TGI: 28.6 µM
SF-295 CNS
  GI50: 15.9 µM
  TGI: 31.7 µM
SF-539 CNS
  GI50: 2.63 µM
  TGI: 7.14 µM
SK-MEL-2 melanoma
  GI50: 15 µM
  TGI: 30.3 µM
SK-MEL-28 melanoma
  GI50: 1.69 µM
  TGI: 3.87 µM
SK-MEL-5 melanoma
  GI50: 16.4 µM
  TGI: 30 µM
SK-OV-3 ovarian
  GI50: 17.4 µM
  TGI: 31.3 µM
SN12C renal
  GI50: 16.3 µM
  TGI: 35.3 µM
SNB-19 CNS
  GI50: 18.5 µM
  TGI: 35.6 µM
SNB-75 CNS
  GI50: 13.2 µM
  TGI: 26 µM
SR leukemia
  GI50: 2.59 µM
  TGI: 9.69 µM
SW-620 colon
  GI50: 1.81 µM
  TGI: 3.54 µM
T-47D breast
  GI50: 2.22 µM
  TGI: 5.04 µM
TK-10 renal
  GI50: 2.01 µM
  TGI: 4.14 µM
U251 CNS
  GI50: 14.7 µM
  TGI: 28.9 µM
UACC-257 melanoma
  GI50: 3.52 µM
  TGI: 9.28 µM
UACC-62 melanoma
  GI50: 14.8 µM
  TGI: 29 µM
UO-31 renal
  GI50: 5.54 µM
  TGI: 11.4 µM
